Measurements from patent publication US6300345A, “Cyanoguanidines as cell proliferation inhibitors” (Leo Pharmacuetical Products Ltd. A/S (L.o slashed.vens …, priority 1997, dated 2001).

Experiments:
Assay type in all cases: cell-based
[1] = tested on: human small cell lung carcinoma (NYH); assay: Inhibition of tumour cell proliferation in vitro ([3H]thymidine incorporation), NYH; conditions: 24 hours
Experimental: (§1) The inhibition of tumour cell proliferation was studied using different types of human cancer cell lines. The cell lines under investigation were small cell lung carcinoma (NYH), non small cell lung carcinoma (NCI-H460), and breast cancer (MCF-7) using the following general procedure:
(§2) The cells were cultured in vitro for 24 hours in the presence of the compound under investigation. DNA synthesis was measured by incorporation of [3H]thymidine, and the median inhibitory concentrations (IC50) of the compounds were calculated.

[2] = tested on: human non small cell lung cancer (NCI-H460); assay: Inhibition of tumour cell proliferation in vitro ([3H]thymidine incorporation), NCI-H460; conditions: NCI-H460, 24 hours
Experimental: as §1, §2

[3] = tested on: human breast cancer (MCF-7); assay: Inhibition of tumour cell proliferation in vitro ([3H]thymidine incorporation), MCF-7; conditions: MCF7, MCF-7, 24 hours
Experimental: as §1, §2

| SMILES | IC50 [1] [nM] | IC50 [2] [nM] | IC50 [3] [nM] |
| --- | --- | --- | --- |
| N#CN=C(NCCCCCCCCCCCCNC(=NC#N)Nc1cccnc1)Nc1cccnc1 [Example No. 6, 1,12-Bis(N'-cyano-N"-3-pyridylguanidino)dodecane] | 4.4 | 65 | 26 |
| N#CN=C(NCCCCCCCCCCNC(=NC#N)Nc1ccncc1)Nc1ccncc1 [Example No. 8, 1,10-Bis(N'-cyano-N"-4-pyridylguanidino)decane] | 0.91 | 65 | 6.6 |
| N#CN=C(NCCCCCCCCCCCCNC(=NC#N)Nc1ccncc1)Nc1ccncc1 [Example No. 14, 1,12-Bis(N'-cyano-N"-4-pyridylguanidino)dodecane] | 0.5 | 69 | 13 |
